Data as given in patent publication US20220017486A1, “DOCK1-INHIBITING COMPOUND AND USE THEREOF” (KYUSHU UNIVERSITY, NATIONAL UNIVERSITY CORPORATION, priority 2018, published 2022).

Key:
DOCK1 (DHR-2 domain) = biological target: T1, DOCK1 (DHR-2 domain) (Homo sapiens, UniProt Q14185); test: In vitro GEF assay: Rac activation by DOCK1 DHR-2 domain; assay type: biochemical, mice and humans; conditions: in words; for selective inhibitory activity against DOCK1 versus DOCK2: GEF assay DOCK1 vs DOCK2 DHR-2 domain; for DOCK1-inhibiting activity compared with TBOPP / selective inhibitory activity against DOCK1 compared to TBOPP: GEF assay
T1 construct: polypeptide fragments corresponding to the DHR-2 domain of DOCK1 or DOCK2 from mice and humans; Histidine-SUMO (N); made in house; host or cells: E. coli Arctic express (DE3)
T1 sequence (Q14185 1207-1617 limits assumed): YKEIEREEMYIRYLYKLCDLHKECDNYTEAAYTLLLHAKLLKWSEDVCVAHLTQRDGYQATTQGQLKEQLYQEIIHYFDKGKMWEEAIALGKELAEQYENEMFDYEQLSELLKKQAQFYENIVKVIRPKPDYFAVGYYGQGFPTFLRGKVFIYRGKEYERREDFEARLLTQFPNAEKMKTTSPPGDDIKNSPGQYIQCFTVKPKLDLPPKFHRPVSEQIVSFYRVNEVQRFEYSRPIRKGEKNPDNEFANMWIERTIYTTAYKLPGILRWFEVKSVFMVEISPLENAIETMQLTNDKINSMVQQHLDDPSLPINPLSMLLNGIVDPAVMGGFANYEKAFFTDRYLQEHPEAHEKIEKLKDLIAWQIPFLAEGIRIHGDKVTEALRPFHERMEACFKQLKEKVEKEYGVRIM
Description: DOCK1 and DOCK2, i.e., DOCK-A subfamily members, both activate Rac by catalyzing the GTP-GDP exchange reaction for Rac via their DHR-2 domains. Therefore, in this Pharmacological Test, the inhibitory effect of the compounds of the present invention on Rac activation by DOCK1 or DOCK2 was assessed in an in vitro GEF assay by using polypeptide fragments corresponding to the DHR-2 domain of DOCK1 or DOCK2 from mice and humans. The in vitro GEF assay was performed using a labeled GTP (Bodipy-FL-GTP, Invitrogen), which has a property of increasing the fluorescence intensity when bound to Rac.
The polypeptide fragments corresponding to the DHR-2 domain of DOCK1 or DOCK2 were prepared by expression in E. coli Arctic express (DE3) cells as N-terminal. Histidine-SUMO tag-fused recombinant proteins, followed by purification by affinity column chromatography on nickel-NTA columns.
Rac was prepared by expression in E. coli BL21 (DE3) cells as an N-terminal GST tag-fused recombinant protein, followed by purification by affinity column chromatography on glutathione-Sepharose columns.
Each of the polypeptide fragments corresponding to the DHR-2 domain of DOCK1 or DOCK2, and a predetermined concentration of each test compound (the compounds of the present invention: 33 types of compounds; and comparative compound: TBOPP) dissolved in DMSO were incubated in a reaction solution A (pH 7.0), which contained 20 mM of MES-NaOH, 150 mM of NaCl, 10 mM of MgCl2, and 20 μM of GDP for 20 minutes at room temperature while being shielded from light to thus prepare GEF pretreated products. The final concentration of DMSO was adjusted to 1 mass % in all of the test samples. For a control test, a GEF pretreated product (control) was prepared by incubation in the same manner using DMSO with no test compounds, instead of the DMSO used above in which each test compound was dissolved.
Separately, Rac was added to the reaction solution A (pH 7.0) to a concentration of 15 μM, and was allowed to stand on for 30 min to form a GDP-Rac complex. Bodipy-FL-GTP was added to a concentration of 3.6 μM to 100 μL of the reaction solution A that contained the thus-prepared GDP-Rac complex, and equilibrated at 30° C. for 2 minutes. After equilibration, 50 μL of the GEF pretreated product prepared as described above was added and reacted at 30° C.
Changes in fluorescence intensity of Bodipy-FL-GTP in the reaction solutions were monitored using an EnSpire spectrofluorometer (Perkin Elmer) (excitation wavelength: 488 nm, fluorescence wavelength: 514 nm). The measured values were corrected so that the fluorescence intensity at the beginning of the reaction (0 sec) was 0. Then, an approximate curve (hyperbola) was obtained by plotting the calculated correction values on the y-axis and the time (t) on the x-axis using GraphPad Prism5 (GraphPad software), and the slope at t=0 to 10 seconds was defined as the initial velocity of the guanine nucleotide exchange reaction. The IC50 value was calculated taking the initial reaction velocity of the control, to which only a solvent (DMSO) was added, as 100%.
Based on the obtained results, columns A and B of FIG. 1, FIG. 2, FIG. 3-1, and FIG. 3-2 show the results evaluating the inhibitory effect on Rac activation by DOCK1 (DHR-2 domain) (IC50 value), and DOCK1-selective inhibitory effect (DOCK1/DOCK2 selectivity) of each test compound. The inhibitory effect on Rac activation by DOCK1 (DHR-2 domain) (IC50 value) was determined from the reaction inhibition curve plotted using values of Rac activation by the DOCK1 DHR-2 domain in the presence of various concentrations of the test compounds, taking the values of the control as 100%. […]

[1] = system: mouse lung carcinoma cell line (3LL cells); test: Cell invasion inhibition assay (Matrigel invasion chamber); assay type: cell-based; conditions: in words
Description: In this Pharmacological Test, the inhibitory effect of each test compound on cell invasion response was evaluated using a mouse lung carcinoma cell line (3LL cells), a mouse pancreatic cancer cell line (PANC02 cells), and a human breast cancer cell line (MDA-MB-157 cells). Of these, the mouse lung carcinoma cell line (3LL) is a cancer cell line with mutant Ras (K-Ras (G12C)), and the human breast cancer cell line (MDA-MB-157) is a cancer cell line with mutant Rac (Rac1 (P29S)). The experiments were performed in BD BioCoat Matrigel invasion chambers (BD Biosciences).
Specifically, an upper chamber with a Matrigel-coated membrane insert (8 μm pores) at the bottom was equilibrated with DMEM (serum-free medium) for 120 minutes. Thereafter, 300 μL of a suspension of a cancer cell line in DMEM (serum-free) was placed in the upper chamber while 500 μL of DMEM (with 10 mass % FCS) was placed in the lower chamber. Each test compound dissolved in DMSO at a predetermined concentration was added to both the culture media in the upper and lower chambers. As a control, DMSO alone was added to both the culture media in the upper and lower chambers. In all of the experiments, the final DMSO concentration in the culture media was adjusted to 0.2 mass %.
The resulting products were cultured under 5% CO2 at 37° C. for 22 hours (3LL and PANC02 cells) or 48 hours (MDA-MB-157 cells). Then, the upper chamber was removed, and the culture medium was removed. Thereafter, non-invading cells remaining in the upper chamber were removed using a cotton swab, and the cells remaining outside the bottom of the upper chamber (cells that had invaded into the Matrigel, and passed through the membrane insert) were stained with Diff-Quick (Sysmex). After staining, the membrane inserts with Matrigel were cut out using a scalpel to prepare slides, and the number of invading cells was counted under an optical microscope.
The results were evaluated based on percent cell invasion (%: Invasion) and percent inhibition (%: Inhibition). The percent cell invasion was obtained by converting the number of invading cells in the presence of each test compound into a percentage, taking the number of invading cells in the control test, in which DMSO was added alone, as 100%; and the percent inhibition was obtained by deducting the percent cell invasion from 100.

| Compound | selective inhibitory activity against DOCK1 versus DOCK2 (DOCK1 (DHR-2 domain)) | also measured |
| --- | --- | --- |
| O=C(Cn1cc(S(=O)(=O)N2CCCC2)ccc1=O)c1ccc(-c2cccc(C(F)(F)F)c2)cc1O [AK-15, 1-(2-(3-hydroxy-3′-(trifluoromethyl)-[1,1′-biphenyl]-4-yl)-2-oxoethyl)-5-(pyrrolidin-1-yl-sulfonyl)pyridin-2(1H)-one] | higher selective inhibitory activity against DOCK1 than against DOCK2 |  |
| O=c1ccc(S(=O)(=O)N2CCCC2)cn1CC(O)c1ccc(-c2cccc(C(F)(F)F)c2)cc1O (stereo not drawn) [AK-16, 1-(2-hydroxy-2-(3-hydroxy-3′-(trifluoromethyl)-[1,1′-biphenyl]-4-yl)ethyl)-5-(pyrrolidin-1-yl-sulfonyl)pyridin-2(1H)-one] |  | DOCK1-inhibiting activity compared with TBOPP (DOCK1 (DHR-2 domain)): slightly lower DOCK1-inhibiting activity; selective inhibitory activity against DOCK1 compared to TBOPP (DOCK1 (DHR-2 domain)): higher selective inhibitory activity against DOCK1 |
| CC1(C)Oc2cc(-c3cccc(C(F)(F)F)c3)ccc2C(Cn2cc(S(=O)(=O)N3CCCC3)ccc2=O)O1 (stereo not drawn) [AK-17, 1-((2,2-dimethyl-7-(3-(trifluoromethyl)phenyl)-4H-benzo[d][1,3]dioxin-4-yl)methyl)-5-(pyrrolidin-1-yl-sulfonyl)pyridin-2(1H)-one] | higher selective inhibitory activity against DOCK1 than against DOCK2 |  |
| CCCCCCOc1cc(-c2cccc(C(F)(F)F)c2)ccc1C(=O)C(CCCCCC)n1cc(S(=O)(=O)N2CCCC2)ccc1=O (stereo not drawn) [AK-23, 1-(1-(3-(hexyloxy)-3′-(trifluoromethyl)-[1,1′-biphenyl]-4-yl)-1-oxooctan-2-yl)-5-(pyrrolidin-1-yl-sulfonyl)pyridin-2(1H)-one] | higher selective inhibitory activity against DOCK1 than against DOCK2 |  |
| O=C(Cn1cc(S(=O)(=O)N2CCCC2)ccc1=O)c1ccc(-c2cccc(C(F)(F)F)c2)cc1OCCc1ccccc1 [AK-24, 1-(2-oxo-2-(3-phenethoxy-3′-(trifluoromethyl)-[1,1′-biphenyl]-4-yl)ethyl)-5-(pyrrolidin-1-yl-sulfonyl)pyridin-2(1H)-one] | higher selective inhibitory activity against DOCK1 than against DOCK2 |  |
| O=S(=O)(c1cc(CO)n(CC(O)c2ccc(-c3cccc(C(F)(F)F)c3)cc2)c1)N1CCCC1 (stereo not drawn) [HS-14, 2-(2-(hydroxymethyl)-4-(pyrrolidin-1-yl-sulfonyl)-1H-pyrrol-1-yl)-1-(3′-(trifluoromethyl)-[1,1′-biphenyl]-4-yl)ethan-1-ol] | higher selective inhibitory activity against DOCK1 than against DOCK2 | DOCK1-inhibiting activity compared with TBOPP (DOCK1 (DHR-2 domain)): slightly lower DOCK1-inhibiting activity; selective inhibitory activity against DOCK1 compared to TBOPP (DOCK1 (DHR-2 domain)): higher selective inhibitory activity against DOCK1 |
| CCC(=O)c1cc(S(=O)(=O)N2CCCC2)cn1CC(=O)c1ccc(-c2cccc(C(F)(F)F)c2)cc1 [HS-17, 1-(1-(2-oxo-2-(3′-(trifluoromethyl)-[1,1′-biphenyl]-4-yl)ethyl)-4-(pyrrolidin-1-yl-sulfonyl)-1H-pyrrol-2-yl)propan-1-one] |  | percent cell invasion inhibition compared with TBOPP [1]: higher percent cell invasion inhibition than TBOPP |
| CC(=O)Oc1cc(-c2ccc(-c3cccc(C(F)(F)F)c3)cc2)cn2cc(S(=O)(=O)N3CCCC3)cc12 [HS-20, 2-(pyrrolidin-1-yl-sulfonyl)-6-(3′-(trifluoromethyl)-[1,1′-biphenyl]-4-yl)-indolizin-8-yl acetate] | higher selective inhibitory activity against DOCK1 than against DOCK2 |  |
| O=C(Cn1cc(S(=O)(=O)N2CCC(c3ccc(-c4ccccc4)cc3)CC2)ccc1=O)c1ccc(-c2cccc(C(F)(F)F)c2)cc1 [KS-43, 5-((4-([1,1′-biphenyl]-4-yl)piperidin-1-yl)sulfonyl)-1-(2-oxo-2-(3′-(trifluoromethyl)-[1,1′-biphenyl]-4-yl)ethyl)pyridin-2(1H)-one] | higher selective inhibitory activity against DOCK1 than against DOCK2 |  |
| O=C(Cn1cc(S(=O)(=O)N2CCC(c3ccc(-c4ccc5c(c4)Cc4ccccc4-5)cc3)CC2)ccc1=O)c1ccc(-c2cccc(C(F)(F)F)c2)cc1 [KS-46, 5-((4-(4-(9H-fluoren-2-yl)phenyl)piperidin-1-yl)sulfonyl)-1-(2-oxo-2-(3′-(trifluoromethyl)-[1,1′-biphenyl]-4-yl)ethyl)pyridin-2(1H)-one] | higher selective inhibitory activity against DOCK1 than against DOCK2 |  |
| O=C(Cn1cc(S(=O)(=O)N2CCC(c3ccc(-c4c5ccccc5cc5ccccc45)cc3)CC2)ccc1=O)c1ccc(-c2cccc(C(F)(F)F)c2)cc1 [KS-47, 5-((4-(4-(anthracen-9-yl)phenyl)piperidin-1-yl)sulfonyl)-1-(2-oxo-2-(3′-(trifluoromethyl)-[1,1′-biphenyl]-4-yl)ethyl)pyridin-2(1H)-one] | higher selective inhibitory activity against DOCK1 than against DOCK2 |  |
| CN(C)C(=O)c1cc(S(=O)(=O)N2CCCC2)cn1CC(=O)c1ccc(-c2cccc(C(F)(F)F)c2)cc1 [RT-23, N,N-dimethyl-1-(2-oxo-2-(3′-(trifluoromethyl)-[1,1′-biphenyl]-4-yl)ethyl)-4-(pyrrolidin-1-yl-sulfonyl)-1H-pyrrole-2-carboxamide] | higher selective inhibitory activity against DOCK1 than against DOCK2 |  |
